Molecules are shown by their SMILES. Like-named read-outs stand apart in the source and are kept apart here.

The results in this text go back to patent US8173682B2, “Substituted pyridones as inhibitors of poly(ADP-ribose) polymerase (PARP)” (Aventis Pharmaceuticals Inc., priority 2004, dated 2012).

The experiment deals with recombinantly expressed human PARP-1 enzyme (Homo sapiens, UniProt P09874). Put plainly: PARP enzyme assay, Method B (tritium-labeled NAD incorporation). In kind it is biochemical. As for the experimental part:
Method B: PARP Enzyme Assay:
The IC50 is determined in this method by incubating the substances to be tested with the DNA-activated, recombinantly expressed and purified PARP-1 enzyme. Specifically, various concentrations of the test substance are incubated in 50 μL of reaction solution, which contains 50 mM Tris, 5 mM MgCl2, 1 mM DTT, 200 μM NAD, 0.1 m Ci/mL tritium-labeled NAD, 0.1 mg/mL DNA, 0.1 mg/mL histones, 2 μg/mL recombinantly expressed human PARP-1 enzyme, pH=8.0, at room temperature for 1 hour. The reaction is stopped by adding 150 μL of 20% trichloroacetic acid, and the radiolabeled protein constituents are precipitated. After incubation on ice for 10 minutes, the labeled, insoluble constituents are separated off through a glass fiber filter and, after washing with 20% trichloroacetic acid three times, the radioactivity incorporated by the PARP-1 enzyme is measured by radioluminescence. Consideration of the incorporation rates determined in this way as a function of the concentration of the test substance results in IC50 as the concentration of the test substance which reduces the incorporation rate to half the maximum value attainable (incubation without inhibitor).
The IC50 (fifty percent inhibitory concentration of the test substance in a solution—expressed at micromolar (μM) concentration) measured in accordance with these procedures for the compounds of this invention are summarized in Table 1.

The mark [1] stands for this setting: Method B, 200 μM NAD, room temperature 1 hour, pH 8.0, read-out: IC50 (μM)/Method B.

recombinantly expressed human PARP-1 enzyme, sequence (P09874 whole entry): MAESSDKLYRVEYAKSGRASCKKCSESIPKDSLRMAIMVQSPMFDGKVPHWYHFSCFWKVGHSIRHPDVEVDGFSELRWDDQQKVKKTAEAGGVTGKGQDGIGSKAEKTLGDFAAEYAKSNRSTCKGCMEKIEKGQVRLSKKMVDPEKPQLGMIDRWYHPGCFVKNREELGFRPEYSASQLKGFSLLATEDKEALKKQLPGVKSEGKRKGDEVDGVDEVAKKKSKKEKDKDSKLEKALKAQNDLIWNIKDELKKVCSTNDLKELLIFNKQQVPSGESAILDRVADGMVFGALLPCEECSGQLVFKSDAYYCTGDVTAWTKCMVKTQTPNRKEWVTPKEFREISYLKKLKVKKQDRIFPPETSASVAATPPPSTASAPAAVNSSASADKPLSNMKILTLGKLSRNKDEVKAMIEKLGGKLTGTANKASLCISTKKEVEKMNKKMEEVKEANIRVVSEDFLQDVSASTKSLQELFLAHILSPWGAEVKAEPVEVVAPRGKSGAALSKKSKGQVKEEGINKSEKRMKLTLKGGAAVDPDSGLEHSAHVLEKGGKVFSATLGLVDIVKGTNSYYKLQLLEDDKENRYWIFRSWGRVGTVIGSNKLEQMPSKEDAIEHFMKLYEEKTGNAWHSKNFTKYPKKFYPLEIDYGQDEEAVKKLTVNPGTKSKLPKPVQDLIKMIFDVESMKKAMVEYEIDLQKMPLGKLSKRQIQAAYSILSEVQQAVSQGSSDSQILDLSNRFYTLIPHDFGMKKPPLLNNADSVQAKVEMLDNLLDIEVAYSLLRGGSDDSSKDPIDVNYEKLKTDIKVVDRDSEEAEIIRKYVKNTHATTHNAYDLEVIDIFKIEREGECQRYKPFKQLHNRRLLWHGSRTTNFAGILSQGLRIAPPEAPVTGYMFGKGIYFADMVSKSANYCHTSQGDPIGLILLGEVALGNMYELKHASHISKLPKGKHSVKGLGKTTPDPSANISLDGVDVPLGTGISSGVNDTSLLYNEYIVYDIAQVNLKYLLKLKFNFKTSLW

As to `CCc1cc(-c2cc(C(=O)NC3CCCC3)ccn2)c(C)[nH]c1=O` [Example 216, 5′-Ethyl-2′-methyl-6′-oxo-1′,6′-dihydro-[2,3′]bipyridinyl-4-carboxylic acid cyclopentylamide], the IC50 under setting [1] is 1.5 µM. For the compound `CCc1cc(-c2cc(C(=O)NCCN3CCOCC3)ccn2)c(C)[nH]c1=O` [Example 217, 5′-Ethyl-2′-methyl-6′-oxo-1′,6′-dihydro-[2,3′]bipyridinyl-4-carboxylic acid (2-morpholin-4-yl-ethyl)-amide], the IC50 under setting [1] is 2.87 µM. As for `CCc1cc(-c2cc(C(=O)NCCc3ccncc3)ccn2)c(C)[nH]c1=O` [Example 218, 5′-Ethyl-2′-methyl-6′-oxo-1′,6′-dihydro-[2,3′]bipyridinyl-4-carboxylic acid (2-pyridin-4-yl-ethyl)-amide], the IC50 under setting [1] was determined as 0.58 µM. Still for that read-out and setting: the figure for `CCc1cc(-c2cncc(C(=O)NC3CCCC3)c2)c(C)[nH]c1=O` [Example 219, 5′-Ethyl-2′-methyl-6′-oxo-1′,6′-dihydro-[3,3′]bipyridinyl-5-carboxylic acid cyclopentylamide] is 1.53 µM; for `CCc1cc(-c2cncc(C(=O)NCc3ccccc3)c2)c(C)[nH]c1=O` [Example 220, 5′-Ethyl-2′-methyl-6′-oxo-1′,6′-dihydro-[3,3′]bipyridinyl-5-carboxylic acid benzylamide] it is 1.27 µM; for `CCc1cc(-c2cncc(C(=O)NCc3ccccn3)c2)c(C)[nH]c1=O` [Example 221, 5′-Ethyl-2′-methyl-6′-oxo-1′,6′-dihydro-[3,3′]bipyridinyl-5-carboxylic acid (pyridin-2-ylmethyl)-amide] it is 2.04 µM. Turning to `CCc1cc(-c2cncc(C(=O)NCc3cccnc3)c2)c(C)[nH]c1=O` [Example 222, 5′-Ethyl-2′-methyl-6′-oxo-1′,6′-dihydro-[3,3′]bipyridinyl-5-carboxylic acid (pyridin-3-ylmethyl)-amide], the IC50 under setting [1] turned out to be 0.75 µM. Same read-out and setting: the figure for `CCCCNC(=O)c1cncc(-c2cc(CC)c(=O)[nH]c2C)c1` [Example 223, 5′-Ethyl-2′-methyl-6′-oxo-1′,6′-dihydro-[3,3′]bipyridinyl-5-carboxylic acid butylamide] is 0.92 µM; for `CCc1cc(-c2cncc(C(=O)NC(CC)c3ccc(C)nc3)c2)c(C)[nH]c1=O` (centres unmarked) [Example 224, 5′-Ethyl-2′-methyl-6′-oxo-1′,6′-dihydro-[3,3′]bipyridinyl-5-carboxylic acid [1-(6-methyl-pyridin-3-yl)-propyl]-amide] it is 5.9 µM; for `CCc1cc(-c2cncc(C(=O)NCC(N)=O)c2)c(C)[nH]c1=O` [Example 225, 5′-Ethyl-2′-methyl-6′-oxo-1′,6′-dihydro-[3,3′]bipyridinyl-5-carboxylic acid carbamoylmethyl-amide] it is 5.5 µM. As for `CCc1cc(-c2cncc(C(=O)N3CCCC3)c2)c(C)[nH]c1=O` [Example 226, 5-Ethyl-2-methyl-5′-(pyrrolidine-1-carbonyl)-1H-[3,3′]bipyridinyl-6-one], the IC50 under setting [1] was 0.95 µM.

In the case of `CCc1cc(-c2cncc(C(=O)N(CC)CC)c2)c(C)[nH]c1=O` [Example 227, 5′-Ethyl-2′-methyl-6′-oxo-1′,6′-dihydro-[3,3′]bipyridinyl-5-carboxylic acid diethylamide], under setting [1], the IC50 was 1.98 µM. On the same count and under the same terms, the figure for `CCc1cc(-c2cncc(C(=O)NC(c3cccnc3)C3CC3)c2)c(C)[nH]c1=O` (centres unmarked) [Example 228, 5′-Ethyl-2′-methyl-6′-oxo-1′,6′-dihydro-[3,3′]bipyridinyl-5-carboxylic acid (cyclopropyl-pyridin-3-yl-methyl)-amide] is 10.7 µM; for `CCc1cc(-c2cncc(C(=O)NC[C@H](C)O)c2)c(C)[nH]c1=O` [Example 229, 5′-Ethyl-2′-methyl-6′-oxo-1′,6′-dihydro-[3,3′]bipyridinyl-5-carboxylic acid (2-hydroxy-propyl)-amide] it is 4.7 µM. The same measure, in the same setting: the figure for `CCc1cc(-c2cncc(C(=O)NCCc3ccc([N+](=O)[O-])cc3)c2)c(C)[nH]c1=O` [Example 230, 5′-Ethyl-2′-methyl-6′-oxo-1′,6′-dihydro-[3,3′]bipyridinyl-5-carboxylic acid [2-(4-nitro-phenyl)-ethyl]-amide] is 0.13 µM.

Turning to `CCc1cc(-c2cncc(C(=O)N3CC(O)CC3C(=O)OC)c2)c(C)[nH]c1=O` (centres unmarked) [Example 231, 1-(5′-Ethyl-2′-methyl-6′-oxo-1′,6′-dihydro-[3,3′]bipyridinyl-5-carbonyl)-4-hydroxy-pyrrolidine-2-carboxylic acid methyl ester], under setting [1], the IC50 is 14.8 µM. For `CCc1cc(-c2cncc(C(=O)NCCc3ccccc3O)c2)c(C)[nH]c1=O` [Example 232, 5′-Ethyl-2′-methyl-6′-oxo-1′,6′-dihydro-[3,3′]bipyridinyl-5-carboxylic acid [2-(2-hydroxy-phenyl)-ethyl]-amide], under setting [1], the IC50 is 0.82 µM. The same measure, in the same setting: the figure for `CCc1cc(-c2cncc(C(=O)N(C)CC(N)=O)c2)c(C)[nH]c1=O` [Example 233, 5′-Ethyl-2′-methyl-6′-oxo-1′,6′-dihydro-[3,3′]bipyridinyl-5-carboxylic acid carbamoylmethyl-methyl-amide] is 1.65 µM. For `CCc1cc(-c2cncc(C(=O)N3CCC(=O)CC3)c2)c(C)[nH]c1=O` [Example 234, 5-Ethyl-2-methyl-5′-(4-oxo-piperidine-1-carbonyl)-1H-[3,3′]bipyridinyl-6-one], the IC50 turned out to be 2.46 µM. Turning to `CCc1cc(-c2cncc(C(=O)N(CC)Cc3ccncc3)c2)c(C)[nH]c1=O` [Example 235, 5′-Ethyl-2′-methyl-6′-oxo-1′,6′-dihydro-[3,3′]bipyridinyl-5-carboxylic acid ethyl-pyridin-4-ylmethyl-amide], under setting [1], the IC50 came out at 1.86 µM. Take `CCc1cc(-c2cncc(C(=O)NCCc3ccccc3)c2)c(C)[nH]c1=O` [Example 236, 5′-Ethyl-2′-methyl-6′-oxo-1′,6′-dihydro-[3,3′]bipyridinyl-5-carboxylic acid phenethyl-amide]: under setting [1], the IC50 was 0.44 µM. Turning to `CCc1cc(-c2cncc(C(=O)NCCc3ccc(S(N)(=O)=O)cc3)c2)c(C)[nH]c1=O` [Example 237, 5′-Ethyl-2′-methyl-6′-oxo-1′,6′-dihydro-[3,3′]bipyridinyl-5-carboxylic acid [2-(4-sulfamoyl-phenyl)-ethyl]-amide], under setting [1], the IC50 is 1.34 µM. On the same count and under the same terms, the figure for `CCc1cc(-c2cncc(C(=O)NCCc3ccncc3)c2)c(C)[nH]c1=O` [Example 238, 5′-Ethyl-2′-methyl-6′-oxo-1′,6′-dihydro-[3,3′]bipyridinyl-5-carboxylic acid (2-pyridin-4-yl-ethyl)-amide] is 0.35 µM; for `CCc1cc(-c2cncc(C(=O)NCCc3ccc(OC)cc3)c2)c(C)[nH]c1=O` [Example 239, 5′-Ethyl-2′-methyl-6′-oxo-1′,6′-dihydro-[3,3′]bipyridinyl-5-carboxylic acid [2-(4-methoxy-phenyl)-ethyl]-amide] it is 0.94 µM.

As to `CCc1cc(-c2cncc(C(=O)NCCc3cccc(OC)c3)c2)c(C)[nH]c1=O` [Example 240, 5′-Ethyl-2′-methyl-6′-oxo-1′,6′-dihydro-[3,3′]bipyridinyl-5-carboxylic acid [2-(3-methoxy-phenyl)-ethyl]-amide], the IC50 under setting [1] is 3.88 µM.

With `CCc1cc(-c2cncc(C(=O)NCCN3CCOCC3)c2)c(C)[nH]c1=O` [Example 241, 5′-Ethyl-2′-methyl-6′-oxo-1′,6′-dihydro-[3,3′]bipyridinyl-5-carboxylic acid (2-morpholin-4-yl-ethyl)-amide], the IC50 under setting [1] stood at 1.25 µM.

In the case of `CCc1cc(-c2cncc(C(=O)NCCC3CCOCC3)c2)c(C)[nH]c1=O` [Example 242, 5′-Ethyl-2′-methyl-6′-oxo-1′,6′-dihydro-[3,3′]bipyridinyl-5-carboxylic acid [2-(tetrahydro-pyran-4-yl)-ethyl]-amide], the IC50 under setting [1] came to 1.79 µM. In the case of `CCc1cc(-c2cncc(C(=O)NCCc3ccc(C(=O)O)cc3)c2)c(C)[nH]c1=O` [Example 243, 4-{2-[(5′-Ethyl-2′-methyl-6′-oxo-1′,6′-dihydro-[3,3′]bipyridinyl-5-carbonyl)-amino]-ethyl}-benzoic acid], the IC50 under setting [1] is 2.29 µM. Still for that read-out and setting: then `CCc1cc(-c2cncc(C(=O)NCC(=O)c3ccccc3)c2)c(C)[nH]c1=O` [Example 244, 5′-Ethyl-2′-methyl-6′-oxo-1′,6′-dihydro-[3,3′]bipyridinyl-5-carboxylic acid (2-oxo-2-phenyl-ethyl)-amide], with 0.32 µM. For the compound `CCc1cc(-c2cncc(C(=O)NCCc3nc4ccccc4[nH]3)c2)c(C)[nH]c1=O` [Example 245, 5′-Ethyl-2′-methyl-6′-oxo-1′,6′-dihydro-[3,3′]bipyridinyl-5-carboxylic acid [2-(1H-benzoimidazol-2-yl)-ethyl]-amide], the IC50 under setting [1] came to 1.9 µM. As to `CCc1cc(-c2cncc(C(=O)Nc3ccc(C(C)=O)cc3)c2)c(C)[nH]c1=O` [Example 246, 5′-Ethyl-2′-methyl-6′-oxo-1′,6′-dihydro-[3,3′]bipyridinyl-5-carboxylic acid (4-acetyl-phenyl)-amide], the IC50 under setting [1] amounted to 0.64 µM. For the compound `CCc1cc(-c2cncc(C(=O)Nc3cccc(OC)c3)c2)c(C)[nH]c1=O` [Example 248, 5′-Ethyl-2′-methyl-6′-oxo-1′,6′-dihydro-[3,3′]bipyridinyl-5-carboxylic acid (3-methoxy-phenyl)-amide], the IC50 under setting [1] came out at 0.85 µM.
